Data: patent EP4740948A1 (Dong Wha Pharm. Co., Ltd., priority 2023, dated 2025)

Legend:
[1] = biological target: EZH1 (Homo sapiens, UniProt Q92800); experiment: AlphaLISA enzyme activity inhibition, EZH1; type: biochemical; conditions: 5nM test substance
Experimental: (§1) In order to confirm the EZH1 and/or EZH2 activity inhibitory effect of the 1,3-benzodioxole derivative compounds represented by chemical formula I of the present invention, the activity was measured using an AlphaLISA test method. The test substance dissolved in dimethylsulfoxide (DMSO) was diluted in a test solution (20 mM Tris pH 8.0, 0.1% BSA, 0.01% Triton X-100, 0.5 mM DTT) according to a final treatment concentration (5 nM or 10 nM) and mixed with EZH1 and EZH2, respectively, and then histone H3 peptide and S-adenosylmethionine (SAM) were added to initiate an enzyme reaction. An acceptor bead was added thereto after reaction for two hours and subjected to an additional reaction for one hour, after which a donor bead was added thereto. After an additional reaction for 30 minutes, the reaction was completed. An activity was measured using the Magellan program on a Spark10M instrument. DMSO was used as a control group, an inhibition rate of enzyme activity was calculated using a following equation, and the results thereof are shown in Table 1 below. [formula]

[2] = system: G401 cells; experiment: Cancer cell proliferation inhibition (Cell Counting Kit-8), rhabdoid tumor cell line; type: cell-based; conditions: Homo sapiens, G-401, 264 h, 1000 nM, cultured seven to 11 days; read-out: % inhibition rate G401
Text: (§2) Among solid cancer cells, in G401 cells in which expression of SMARCB1, which is a member of switch/sucrosenon-fermenting (SWI/SNF), is defective as a cell line of a rhabdoid tumor in which a therapeutic effect may be expected through dual inhibition of EZH1/2, and MKN-45 cells in which expression of ARID1A, which is a member of SWI/SNF, is defective as a gastric cancer cell line, a proliferation inhibitory ability of the 1,3-benzodioxole derivative compounds represented by chemical formula I of the present invention was evaluated.
(§3) Each cell line (G401 cell, MKN-45 cell, Lovo cell, SW-13 cell, MIA-PaCa-2, NCI-H1299) of Table 2 below was cultured using RPMI1640, McCoy's 5a, L-15 or DMEM containing 10% fetal bovine serum, and the cells were seeded into wells of a 96-well culture dish at 100 to 1,000 cells each, and a test substance 1000 nM was cultured for seven to 11 days after drug treatment. After the culture, the cells were measured according to a manufacturer's instructions using Cell Counting Kit-8, and a cell proliferation inhibitory effect (% inhibition rate) of the test substance was obtained.
(§4) The cell proliferation inhibitory effect (% inhibition rate) of the test substance was calculated using a following equation. % inhibition rate = {1−(testgroup/controlgroup)} X 100 [formula]

[3] = system: MIA-PaCa-2 cells; experiment: Cancer cell proliferation inhibition (Cell Counting Kit-8), pancreatic cancer cell line; type: cell-based; conditions: Homo sapiens, MIA PaCa-2, 264 h, 1000 nM, cultured seven to 11 days; read-out: % inhibition rate MIA-Paca2
Experimental: (§5) In addition, as one example of solid cancer in which an overexpression of EZH2 and a consequent disease association therebetween is reported, a proliferation inhibitory activity of the 1,3-benzodioxole derivative compounds represented by chemical formula I of the present invention was evaluated in Lovo cells as a colorectal cancer cell line, SW-13 cells as an adrenal cancer cell line, MIA-PaCa-2 cells as a pancreatic cancer cell line, and NCI-H1299 cells as a lung cancer cell line.
as §3, §4

[4] = system: Lovo cells; experiment: Cancer cell proliferation inhibition (Cell Counting Kit-8), colorectal cancer cell line; type: cell-based; conditions: Homo sapiens, LoVo, 264 h, 1000 nM, cultured seven to 11 days; read-out: % inhibition rate LoVo
Experimental: as §5, §3, §4

[5] = system: MKN-45 cells; experiment: Cancer cell proliferation inhibition (Cell Counting Kit-8), gastric cancer cell line; type: cell-based; conditions: Homo sapiens, MKN-45, 264 h, 1000 nM, cultured seven to 11 days; read-out: % inhibition rate MKN -45
Text: as §2, §3, §4

[6] = system: NCI-H1299 cells; experiment: Cancer cell proliferation inhibition (Cell Counting Kit-8), lung cancer cell line; type: cell-based; conditions: Homo sapiens, NCI-H1299, 264 h, 1000 nM, cultured seven to 11 days; read-out: % inhibition rate NCI-H129 9
Experimental: as §5, §3, §4

[7] = system: SW-13 cells; experiment: Cancer cell proliferation inhibition (Cell Counting Kit-8), adrenal cancer cell line; type: cell-based; conditions: Homo sapiens, SW13, 264 h, 1000 nM, cultured seven to 11 days; read-out: % inhibition rate SW-13
Experimental: as §5, §3, §4

[8] = biological target: EZH2 (Homo sapiens, UniProt Q15910); experiment: AlphaLISA enzyme activity inhibition, EZH2; type: biochemical; conditions: 5nM test substance
Sequence of EZH2 (Q15910 whole entry, species assumed): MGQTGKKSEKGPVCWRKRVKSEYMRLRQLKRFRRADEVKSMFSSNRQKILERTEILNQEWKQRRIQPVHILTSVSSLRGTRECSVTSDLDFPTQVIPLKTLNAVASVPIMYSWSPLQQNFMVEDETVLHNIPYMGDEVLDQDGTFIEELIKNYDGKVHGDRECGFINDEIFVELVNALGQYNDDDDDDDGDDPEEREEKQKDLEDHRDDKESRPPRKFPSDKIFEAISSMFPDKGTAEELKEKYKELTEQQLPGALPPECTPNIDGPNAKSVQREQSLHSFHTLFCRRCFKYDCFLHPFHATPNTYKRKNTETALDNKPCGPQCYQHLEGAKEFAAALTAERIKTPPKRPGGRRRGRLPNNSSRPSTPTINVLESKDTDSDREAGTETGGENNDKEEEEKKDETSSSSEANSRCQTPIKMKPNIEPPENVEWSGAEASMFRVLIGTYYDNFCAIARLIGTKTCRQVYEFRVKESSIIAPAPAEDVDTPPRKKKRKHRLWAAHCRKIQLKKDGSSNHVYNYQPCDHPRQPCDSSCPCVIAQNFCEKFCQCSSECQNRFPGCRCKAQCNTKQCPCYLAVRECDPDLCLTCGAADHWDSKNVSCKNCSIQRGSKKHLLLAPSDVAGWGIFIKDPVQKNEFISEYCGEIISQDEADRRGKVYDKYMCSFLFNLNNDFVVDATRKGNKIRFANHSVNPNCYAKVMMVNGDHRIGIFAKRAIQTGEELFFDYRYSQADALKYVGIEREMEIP
Sequence of EZH2 (O75530 whole entry partner, species assumed): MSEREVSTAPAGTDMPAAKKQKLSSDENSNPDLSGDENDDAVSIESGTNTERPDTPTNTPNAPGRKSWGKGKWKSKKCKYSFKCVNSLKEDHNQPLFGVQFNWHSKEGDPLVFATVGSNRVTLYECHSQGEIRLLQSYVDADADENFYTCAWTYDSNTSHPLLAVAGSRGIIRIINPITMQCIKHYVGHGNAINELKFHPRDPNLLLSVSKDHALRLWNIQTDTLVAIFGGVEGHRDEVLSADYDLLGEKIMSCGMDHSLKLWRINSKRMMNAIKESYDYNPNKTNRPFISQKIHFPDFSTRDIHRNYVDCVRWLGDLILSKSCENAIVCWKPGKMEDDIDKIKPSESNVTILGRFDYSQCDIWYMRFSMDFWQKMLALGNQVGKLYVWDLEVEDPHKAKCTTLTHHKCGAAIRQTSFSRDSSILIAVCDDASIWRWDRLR
Sequence of EZH2 (Q15022 whole entry partner, species assumed): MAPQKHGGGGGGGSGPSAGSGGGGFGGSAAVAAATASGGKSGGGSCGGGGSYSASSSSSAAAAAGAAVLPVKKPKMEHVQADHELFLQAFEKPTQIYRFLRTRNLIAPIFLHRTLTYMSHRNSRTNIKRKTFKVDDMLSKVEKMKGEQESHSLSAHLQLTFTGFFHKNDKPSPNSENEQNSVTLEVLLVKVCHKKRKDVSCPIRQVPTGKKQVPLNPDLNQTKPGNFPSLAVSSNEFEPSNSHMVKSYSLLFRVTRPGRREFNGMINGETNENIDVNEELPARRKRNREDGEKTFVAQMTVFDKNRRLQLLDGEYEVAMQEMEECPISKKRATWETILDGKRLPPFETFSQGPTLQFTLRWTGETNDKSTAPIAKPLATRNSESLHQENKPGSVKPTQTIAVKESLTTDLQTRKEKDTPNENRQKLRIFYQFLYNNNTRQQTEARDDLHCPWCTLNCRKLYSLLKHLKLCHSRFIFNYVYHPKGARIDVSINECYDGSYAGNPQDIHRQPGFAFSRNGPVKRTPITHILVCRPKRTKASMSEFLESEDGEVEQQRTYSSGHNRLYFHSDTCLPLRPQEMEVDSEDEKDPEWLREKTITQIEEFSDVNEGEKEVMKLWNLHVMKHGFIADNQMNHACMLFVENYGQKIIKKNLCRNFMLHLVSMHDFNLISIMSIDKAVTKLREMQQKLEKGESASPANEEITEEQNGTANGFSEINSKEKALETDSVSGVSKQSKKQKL
Experimental: as §1

Sequence of EZH1 (Q92800 whole entry, species assumed): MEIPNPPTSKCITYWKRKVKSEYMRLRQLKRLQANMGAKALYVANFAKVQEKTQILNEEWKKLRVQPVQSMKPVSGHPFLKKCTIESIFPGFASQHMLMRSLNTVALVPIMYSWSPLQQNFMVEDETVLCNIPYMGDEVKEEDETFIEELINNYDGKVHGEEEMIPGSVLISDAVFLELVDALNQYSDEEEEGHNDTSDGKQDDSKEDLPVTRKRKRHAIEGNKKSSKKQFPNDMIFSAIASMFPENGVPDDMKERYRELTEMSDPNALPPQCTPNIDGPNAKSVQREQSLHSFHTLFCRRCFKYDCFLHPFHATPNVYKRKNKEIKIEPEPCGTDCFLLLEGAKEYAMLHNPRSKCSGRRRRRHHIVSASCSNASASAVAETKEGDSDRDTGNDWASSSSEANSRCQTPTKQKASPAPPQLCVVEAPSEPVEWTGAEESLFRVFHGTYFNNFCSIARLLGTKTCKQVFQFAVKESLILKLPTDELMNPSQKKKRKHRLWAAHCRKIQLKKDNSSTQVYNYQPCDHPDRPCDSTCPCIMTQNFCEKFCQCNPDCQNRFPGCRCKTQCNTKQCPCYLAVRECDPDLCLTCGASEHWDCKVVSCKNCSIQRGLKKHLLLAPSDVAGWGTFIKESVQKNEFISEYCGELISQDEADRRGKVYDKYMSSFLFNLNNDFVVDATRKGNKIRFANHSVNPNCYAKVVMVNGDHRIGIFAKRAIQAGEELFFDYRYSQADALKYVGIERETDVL
Sequence of EZH1 (O75530 whole entry partner, species assumed): as the sequence (O75530 whole entry partner, species assumed) above
Sequence of EZH1 (Q15022 whole entry partner, species assumed): as the sequence (Q15022 whole entry partner, species assumed) above

Compound	inhibition at 0.005 µM [1] [%]	inhibition at 1 µM [2] [%]	inhibition at 1 µM [3] [%]	inhibition at 1 µM [4] [%]	inhibition at 1 µM [5] [%]	inhibition at 1 µM [6] [%]	inhibition at 1 µM [7] [%]	inhibition at 0.005 µM [8] [%]
CSc1cc(C)[nH]c(=O)c1CNC(=O)c1cc(-c2ccc(N3CCC(F)(F)CC3)nc2)c2c(c1C)OC(C)([C@H]1CC[C@H](N(C)C)CC1)O2 (relative stereo) [Compound 3, 7-(6-(4,4-difluoropiperidin-1-yl)pyridin-3-yl)-2-(trans-4-(dimethylamino)cyclohexyl)-2,4-dimethyl-N-((6-methyl-4-(methylthio)-2-oxo-1,2-dihydropyridin-3-yl)methyl)benzo[d][1,3]dioxole-5-carboxamide]	73.5	30 to 70	≤ 30	30 to 70	≤ 30	30 to 70	30 to 70	66.5
CSc1cc(C)[nH]c(=O)c1CNC(=O)c1cc(-c2cnc(N3CCCCC3)nc2)c2c(c1C)OC(C)([C@H]1CC[C@H](N(C)C)CC1)O2 (relative stereo) [Compound 4, 2-(trans-4-(dimethylamino)cyclohexyl)-2,4-dimethyl-N-((6-methyl-4-(methylthio)-2-oxo-1,2-dihydropyridin-3-yl)methyl)-7-(2-(piperidin-1-yl)pyrimidin-5-yl)benzo[d][1,3]dioxole-5-carboxamide]	74	30 to 70	≤ 30	≥ 70	≤ 30	≤ 30	30 to 70	77.4
CSc1cc(C)[nH]c(=O)c1CNC(=O)c1cc(-c2cnc(N3CCCC3)nc2)c2c(c1C)OC(C)([C@H]1CC[C@H](N(C)C)CC1)O2 (relative stereo) [Compound 5, 2-(trans-4-(dimethylamino)cyclohexyl)-2,4-dimethyl-N-((6-methyl-4-(methylthio)-2-oxo-1,2-dihydropyridin-3-yl)methyl)-7-(2-(pyrrolidin-1-yl)pyrimidin-5-yl)benzo[d][1,3]dioxole-5-carboxamide]	95.1	30 to 70	≤ 30	30 to 70	≤ 30	≤ 30	30 to 70	99.5
CSc1cc(C)[nH]c(=O)c1CNC(=O)c1cc(-c2ccc(CN3CCOCC3)cc2)c2c(c1C)OC(C)([C@H]1CC[C@H](N(C)C)CC1)O2 (relative stereo) [Compound 6, 2-(trans-4-(dimethylamino)cyclohexyl)-2,4-dimethyl-N-((6-methyl-4-(methylthio)-2-oxo-1,2-dihydropyridin-3-yl)methyl)-7-(4-(morpholinomethyl)phenyl)benzo[d][1,3]dioxole-5-carboxamide]	86.7	30 to 70	≤ 30	30 to 70	≤ 30	≤ 30	30 to 70	98.2
CSc1cc(C)[nH]c(=O)c1CNC(=O)c1cc(-c2ccc3c(ccn3C)c2)c2c(c1C)OC(C)([C@H]1CC[C@H](N(C)C)CC1)O2 (relative stereo) [Compound 7, 2-(trans-4-(dimethylamino)cyclohexyl)-2,4-dimethyl-7-(1-methyl-1H-indol-5-yl)-N-((6-methyl-4-(methylthio)-2-oxo-1,2-dihydropyridin-3-yl)methyl)benzo[d][1,3]dioxole-5-carboxamide]	81.4	30 to 70	≤ 30	30 to 70	30 to 70	≤ 30	30 to 70	96
CSc1cc(C)[nH]c(=O)c1CNC(=O)c1cc(-c2cnc(N3CCC(F)(F)CC3)nc2)c2c(c1C)OC(C)([C@H]1CC[C@H](N(C)C)CC1)O2 (relative stereo) [Compound 8, 7-(2-(4,4-difluoropiperidin-1-yl)pyrimidin-5-yl)-2-(trans-4-(dimethylamino)cyclohexyl)-2,4-dimethyl-N-((6-methyl-4-(methylthio)-2-oxo-1,2-dihydropyridin-3-yl)methyl)benzo[d][1,3]dioxole-5-carboxamide]	85.6	30 to 70	≤ 30	30 to 70	30 to 70	≤ 30	30 to 70	96.1
CSc1cc(C)[nH]c(=O)c1CNC(=O)c1cc(-c2ccc(N3CCOCC3)cc2)c2c(c1C)OC(C)([C@H]1CC[C@H](N(C)C)CC1)O2 (relative stereo) [Compound 9, 2-(trans-4-(dimethylamino)cyclohexyl)-2,4-dimethyl-N-((6-methyl-4-(methylthio)-2-oxo-1,2-dihydropyridin-3-yl)methyl)-7-(4-morpholinophenyl)benzo[d][1,3]dioxole-5-carboxamide]	86.1	30 to 70	≤ 30	30 to 70	≤ 30	≤ 30	30 to 70	98.6
CSc1cc(C)[nH]c(=O)c1CNC(=O)c1cc(-c2ccc(F)cc2)c2c(c1C)OC(C)([C@H]1CC[C@H](N(C)C)CC1)O2 (relative stereo) [Compound 10, 2-(trans-4-(dimethylamino)cyclohexyl)-7-(4-fluorophenyl)-2,4-dimethyl-N-((6-methyl-4-(methylthio)-2-oxo-1,2-dihydropyridin-3-yl)methyl)benzo[d][1,3]dioxole-5-carboxamide]	82.8	30 to 70	≤ 30	≥ 70	≤ 30	≤ 30	30 to 70	98.7
CSc1cc(C)[nH]c(=O)c1CNC(=O)c1cc(-c2ccsc2)c2c(c1C)OC(C)([C@H]1CC[C@H](N(C)C)CC1)O2 (relative stereo) [Compound 11, 2-(trans-4-(dimethylamino)cyclohexyl)-2,4-dimethyl-N-((6-methyl-4-(methylthio)-2-oxo-1,2-dihydropyridin-3-yl)methyl)-7-(thiophen-3-yl)benzo[d][1,3]dioxole-5-carboxamide]	82.9	30 to 70	≤ 30	≥ 70	≤ 30	30 to 70	30 to 70	98.9
COc1ccc(F)cc1-c1cc(C(=O)NCc2c(SC)cc(C)[nH]c2=O)c(C)c2c1OC(C)([C@H]1CC[C@H](N(C)C)CC1)O2 (relative stereo) [Compound 12, 2-(trans-4-(dimethylamino)cyclohexyl)-7-(5-fluoro-2-methoxyphenyl)-2,4-dimethyl-N-((6-methyl-4-(methylthio)-2-oxo-1,2-dihydropyridin-3-yl)methyl)benzo[d][1,3]dioxole-5-carboxamide]	80.5	30 to 70	≤ 30	30 to 70	≤ 30	≤ 30	30 to 70	99.2
